Experimental findings from publication PMC12655351, “Synthesis and Anticancer Activity Evaluation of New 5-((5-Nitrofuran-2-yl)allylidene)-2-thioxo-4-thiazolidinones” (Pharmaceuticals, 2025) are described below.

pIC50: −log10 of the molar value. A value given as a limit tells only on which side of the number the result lay.

Holding throughout (assay type): cell-based
The test system of test [1] is MDA-MB-231. In words: [3H]-thymidine incorporation assay. As to conditions: Homo sapiens; MDA-MB-231, 24 h of treatment. On the procedure:
(§1) Another method of assessing the cytotoxic effects of tested compounds, [^3H]-thymidine incorporation assay, was applied. This method provided the capability to analyze the antiproliferative activity of novel structures on MCF-7 and MDA-MB-231 through their ability to incorporate thymidine into the cells. The acquired results further confirmed the potent activity of the 14b compound as the most prominent structure among the novel compounds (Table 2). The test was carried out in triplicate at concentrations of 5, 15, and 30 μM for the MDA-MB-231 cell line and 1, 5, and 10 μM for the MCF-7 cell line.
(§2) Following the selection of cell lines for further study, the effects of all compounds on cell proliferation were evaluated on MCF-7 and MDA-MB-231 cell lines. Cells were seeded in 24-well plates and cultured as described above. Cells were treated with the compounds at concentrations 1, 5, and 10 μM, and 5, 15, and 30 μM for MCF-7 and MDA-MB-231 cell lines, respectively, for 24 h. Subsequently, 0.5 μCi [^3H]-thymidine was added for 4 h at 37 °C. Then, plates with cells were placed on the ice, the liquid was aspirated, and cells were washed twice with 1mL of 0.05 M Tris-HCl buffer comprising 0.11 M NaCl and precipitated by adding 1 mL per well of 5% trichloroacetic. After precipitation, the cells were dissolved with 1 mL of 0.1 M NaOH with 1% SDS (Sigma-Aldrich, St. Louis, MO, USA) at room temperature (RT). The cell lysates were transferred into scintillation vials containing 2 mL of scintillation fluid (Ultima Gold™ XR, PerkinElmer, MA, USA), and cell-associated radioactivity was measured using a Scintillation Counter 1900 TR, TRI-CARB (Packard, Perkin Elmer, Inc., San Jose, CA, USA). The [^3H]-thymidine uptake was expressed as a percentage of the control value.
(In general: Dividing cells build labelled thymidine or BrdU into new DNA.)

Test [2] concerns MCF-7. In words: [3H]-thymidine incorporation assay. As to conditions: Homo sapiens, MCF7; MCF-7, 24 h of treatment. Here is the method: as §1, §2
The test system of test [3] is K562. The experiment in a line: MTT assay. As to conditions: Homo sapiens; K562, 24 h of treatment. On the procedure:
(§3) The NCI-60 screening protocol utilizes the sulforhodamine B (SRB) assay following 48 h of compound exposure. […] The MTT assay was performed on eleven cancer cell lines: human breast cancer (MDA-MB-231, MCF-7, HCC 1954), human gastric cancer (AGS), human colorectal adenocarcinoma (HT-29, DLD-1, HCT 116), human neuroblastoma (SH SY5Y), and human leukemia (JURKAT, RMPI 8866, K-562) cell lines. The study was conducted in triplicate at the following seven concentrations: 0.62, 1.25, 2.5, 5, 10, 20, and 40 μM.
(§4) The selected cell lines were seeded into 96-well plates and cultured in accordance with the previously described methodology. Then, the cells were treated with all tested compounds and DOX at concentrations of 0.625, 1.25, 2.5, 5.0, 10.0, 20.0, and 40.0 μM for 24 h. A solution of 3-(4,5-dimethyl-2-thiazolyl)-2,5-diphenyl-2H-tetrazolium bromide (Sigma-Aldrich, St. Louis, MO, USA) in phosphate-buffered saline without calcium and magnesium (Corning, Kennebunk, ME, USA) at a concentration of 5 mg/mL was used to carry out MTT assay. After incubation, 20 μL of the prepared MTT solution was added, and then the cells were incubated at 37 °C for two hours. Afterwards, the cells were lysed using 100 μL of lysing buffer (comprising 25 mM HCl, 2% acetic acid, 3% DMF, and 5% SDS, with a pH of 4.7). The absorbance was determined at a wavelength of 570 nm using an Absorbance 96 microplate reader (Byonoy GmbH, Hamburg, Germany).

For test [4], the system named is HCT-116. In words: MTT assay. As to conditions: Homo sapiens; HCT-116, 24 h of treatment. On the procedure:
as §3, §4
In general terms: Tetrazolium assays rely on reduction of a dye to a coloured formazan, in cell work by metabolically active cells.

The subject of test [5] is RPMI 8866. The experiment in a line: MTT assay. Conditions: Homo sapiens; RPMI 8866, 24 h of treatment. On the procedure: as §3, §4
In test [6] the test system is DLD-1. The experiment in a line: MTT assay. Conditions: Homo sapiens; DLD-1, 24 h of treatment. Here is the method: as §3, §4
The test system of test [7] is MDA-MB-231. In words: MTT assay. Conditions: Homo sapiens; MDA-MB-231, 24 h of treatment. Here is the method:
as §3, §4

Test [8] has as its system AGS. The experiment in a line: MTT assay. As to conditions: Homo sapiens, 24 h of treatment. Here is the method:
as §3, §4

Test [9] has as its system SH SY5Y. In words: MTT assay. As to conditions: Homo sapiens, 24 h of treatment. Here is the method:
as §3, §4

In test [10] the test system is HT-29. In words: MTT assay. As to conditions: Homo sapiens; HT-29, 24 h of treatment. On the procedure:
as §3, §4

The subject of test [11] is HCC-1954. The experiment in a line: MTT assay. Conditions: Homo sapiens, HCC1954; HCC-1954, 24 h of treatment. On the procedure:
as §3, §4

The test system of test [12] is MCF-7. In words: MTT assay. As to conditions: Homo sapiens, MCF7; MCF-7, 24 h of treatment. Here is the method: as §3, §4
Test [13] deals with Jurkat. In words: MTT assay. As to conditions: Homo sapiens, 24 h of treatment. Here is the method:
as §3, §4

Regarding `O=C(O)C(Cc1ccccc1)N1C(=O)/C(=C/C=C/c2ccc([N+](=O)[O-])o2)SC1=S` (stereo not shown) [10b, 2-((Z)-5-((E)-3-(5-Nitrofuran-2-yl)allylidene)-4-oxo-2-thioxothiazolidin-3-yl)-3-phenylpropanoic acid], the pIC50 (as a rule, −log10 of the IC50, conventionally taken in molar units) in test [1] was 5.22; in test [2], 5.10; in test [3], 4.59; in [4], 4.87; in test [5] it was 4.78; in [6], 5.03. Also, the pIC50 in [7] was 4.64; in test [8] it was 5.07; in [9] it was 4.72; in test [10], 4.54; in test [11], 4.72; in test [12] it was 5.03. Besides, in [13], the pIC50 is 5.17.

`CC(C)CC(C(=O)O)N1C(=O)/C(=C/C=C/c2ccc([N+](=O)[O-])o2)SC1=S` (stereo not shown) [7b, 4-Methyl-2-((Z)-5-((E)-3-(5-nitrofuran-2-yl)allylidene)-4-oxo-2-thioxothiazolidin-3-yl)pentanoic acid]: the pIC50 in test [1] is 5.66; in [2], 5.17; in [3] it was 4.73; in [4], 5.10; in [5] it was 4.77; in test [6], 5.12. Further, the negative logarithm of the IC50 (pIC50) in [7] is 4.78; in [8] it was 5.26; in test [9], 4.81; in test [10], 4.87; in test [11], 5.20; in test [12] it was 5.15. This molecule also had a pIC50 in test [13] of 5.11.

On to `CCC(C(=O)O)N1C(=O)/C(=C/C=C/c2ccc([N+](=O)[O-])o2)SC1=S` (stereo not shown) [3b, 2-((Z)-5-((E)-3-(5-Nitrofuran-2-yl)allylidene)-4-oxo-2-thioxothiazolidin-3-yl)butanoic acid], for which the pIC50 in test [1] was 5.58; in test [2] it was 5.11; in test [3], 4.59; in test [4], 4.83; in test [5] it was 4.45; in test [6] it was 5.10. Also, the pIC50 in test [7] was 4.73; in test [8], 5.19; in test [9], 4.54; in test [10] it was 4.52; in test [11] it was 4.76; in [12], 5.11. In test [13], this molecule gave a pIC50 of 4.85.

Turning to `O=C(O)C(Cc1ccc(O)cc1)N1C(=O)/C(=C/C=C/c2ccc([N+](=O)[O-])o2)SC1=S` (stereo not shown) [11b, 3-(4-Hydroxyphenyl)-2-((Z)-5-((E)-3-(5-nitrofuran-2-yl)allylidene)-4-oxo-2-thioxothiazolidin-3-yl)propanoic acid], the pIC50 was below 4.52 in test [1]; below 5.00 in test [2]; below 4.40 in [3]; 4.44 in [4]; 4.56 in test [5]; 4.69 in test [6]. The pIC50 was below 4.40 in test [7]; 4.51 in test [8]; below 4.40 in test [9]; below 4.40 in [10]; below 4.40 in test [11]; 4.48 in test [12]. The molecule further gave a pIC50 in test [13] of 4.77.

In the case of `CCC(C)C(C(=O)O)N1C(=O)/C(=C/C=C/c2ccc([N+](=O)[O-])o2)SC1=S` (stereo not shown) [8b, 3-Methyl-2-((Z)-5-((E)-3-(5-nitrofuran-2-yl)allylidene)-4-oxo-2-thioxothiazolidin-3-yl)pentanoic acid], the pIC50 in test [1] was 5.74; in test [2] it was 5.66; in [3], 5.13; in [4], 5.38; in test [5], 4.85; in test [6], 5.43. Further, the pIC50 in test [7] is 5.08; in test [8], 5.47; in test [9], 5.18; in test [10], 5.09; in [11], 5.31; in test [12], 5.62. For the same molecule, in test [13], the pIC50 is 5.50.

`O=C(O)CN1C(=O)/C(=C/C=C/c2ccc([N+](=O)[O-])o2)SC1=S` [1b, 2-((Z)-5-((E)-3-(5-Nitrofuran-2-yl)allylidene)-4-oxo-2-thioxothiazolidin-3-yl)acetic acid]: the pIC50 in test [1] is below 4.52; in test [2], below 5.00; in [3], below 4.40; in test [4], below 4.40; in [5], below 4.40; in test [6], 4.54. Besides, the pIC50 in test [7] was below 4.40; in test [8], 4.44; in test [9], below 4.40; in [10], 4.65; in test [11], 4.60; in [12], below 4.40. In test [13], this molecule showed a pIC50 of 5.75.

As to `O=C(O)CCCCCCCCCCN1C(=O)/C(=C/C=C/c2ccc([N+](=O)[O-])o2)SC1=S` [15b, 11-((Z)-5-((E)-3-(5-nitrofuran-2-yl)allylidene)-4-oxo-2-thioxothiazolidin-3-yl)undecanoic acid], the pIC50 in [1] was below 4.52; in test [2] it was 5.50; in test [3], 4.81; in test [4], 4.98; in test [5] it was 4.96; in [6], 5.75. Besides, the pIC50 in [7] is below 4.40; in [8], 5.77; in [9] it was 5.42; in test [10] it was 5.02; in test [11] it was 5.21; in test [12], 5.39. In addition, in test [13], the negative logarithm of the IC50 (pIC50) is 5.85.
